Assay: Relaxivity measurement (T1 and T2 relaxation, MRI Contrast Agent Analyzer)
Type: physicochemical
Conditions: 0.5 T, 32° C., pH=7.4
Protocol: The method for measuring the relaxivity comprises the following steps: preparing contrast agent solutions in a gradient concentration (0.054, 0.109, 0.224, 0.451, 0.906 mM, in Hepes buffer, pH=7.4), and measuring the contrast agent samples at different concentrations by Niumag PQ001 MRI Contrast Agent Analyzer (0.5±0.08T, main frequency of instrument: 21.3 MHz; at 32° C.) to respectively obtain their T1 and T2 relaxation time, and then performing a linear fitting between the relaxation rate, Ri (Ri=1/Ti, i=1, 2) and the contrast agent concentrations to obtain a slope, i.e., relaxivity (ri, i=1, 2). Relaxivity reflects the ability of magnetic resonance imaging contrast agent to alter the relaxation time of water proton and is an important parameter to evaluate the quality of contrast agent. Relaxivity (ri, i=1, 2) is defined as the alteration in the relaxation rate of water proton (1/Ti, i=1, 2) by unit concentration of MRI Contrast agent (mmol/L).

O=C([O-])CN(CP(=O)([O-])O)C1CCCCC1N(CC(=O)[O-])CP(=O)([O-])O.[Mn+2].[Na+].[Na+] (stereo not shown) [KBR0826]
relaxivity r1: 3.12 mmol⁻¹ s⁻¹

From patent US20230098403A1, “MAGNETIC RESONANCE IMAGING CONTRAST AGENT, PREPARATION METHOD AND USE THEREOF” (GUANGZHOU PINGLAN MEDICAL TECHNOLOGY CO., LTD., priority 2020, published 2023)
